From paper PMC12116657, “A “proto” type galectin expressed in striped bass (Morone saxatilis) tissues is released to epidermal mucus and binds to bacterial and mucus glycans” (Frontiers in Cellular and Infection Microbiology, 2025)

Columns and labels:
Msgal1-L1 = experiment: Solid-phase binding-inhibition assay: rMsgal1-L1-HRP binding to asialofetuin (ASF) inhibited by carbohydrates; set-up: species or system Morone saxatilis; conditions: for Relative inhibitory activity, Morone saxatilis: I50 normalized to Galβ1,4Glc (lactose) = 1.0, rMsgal1-L1-HRP binding to ASF, pH 8.0, 23°C, 10 mM ME
Protocol: Binding of the rMsgal1-L1–HRP to asialofetuin (ASF) and its inhibition by carbohydrates were assessed and optimized as reported elsewhere ([Ahmed et al., 1996], [2002]). […] Thus, the inhibition of galectin binding to immobilized ASF by mono- and oligosaccharides is a standard system to analyze the fine specificity of novel galectins. Briefly, ASF (0.5 μg/100 μl/well) in 0.1 M Na2CO3/0.02% NaN3 (pH 9.6) was adsorbed onto the plastic wells (37°C, 3 h) and the bound glycoprotein was fixed with 2% formaldehyde (37°C, 30 min). The plates were washed three times with PBS (azide-free)/0.05% Tween 20, and incubated with the Msgal1-L1–HRP conjugate (10 ng/100 μl/well for binding assays) or with a pre-incubated mixture of equal volume of conjugate and varying concentrations of test ligands (for binding-inhibition assays). After incubation (4°C, 1 h) the plates were washed with ice-cold azide-free PBS-Tween 20 buffer and the bound peroxidase activity was assayed with 2,2’-azino-bis(3-ethylbenzothiazoline-6-sulfonic acid) (ABTS) as previously described ([Ahmed et al., 1996]).
The carbohydrate-binding specificity of Msgal1-L1 was determined by analyzing the binding of the rMsgal1-L1–HRP conjugate to ASF in the presence of several saccharides in a solid-phase assay under the optimal conditions of pH and temperature established above (pH 8.0; 23°C) and under a reducing environment (10 mM ME) ([Ahmed et al., 1996], [2002]). For each test saccharide, a complete inhibition curve was obtained, and the molar concentrations that inhibited the binding of the lectin conjugate to ASF by 50% (I 50) were calculated and normalized with respect to Galβ1,4Glc (lactose), which was included in each plate as a standard ( Table 2 ). The binding-inhibition profile for Msgal1-L1 was generally similar to those for proto type galectins from zebrafish (D. rerio), toad (B. arenarum), and domestic cow (Bos taurus). […] The presence of a fucose unit linked in α1,2 to the non-reducing Gal moiety decreased the inhibitory effectiveness in about one-third as compared to lactose, most likely by steric hindrance of the protein–Gal interaction. […] A hydrophobic phenyl group linked to the reducing end of Galβ1,3GlcNAc strengthened the Msgal1-L1 interaction with the ligand 6.5-fold.

[1] = tested on: proto type galectin from toad (Bufo arenarum); conditions: relative to Galβ1,4Glc = 1.0; comparison values, reference not given; cited from earlier work
[2] = tested on: proto type galectin from zebrafish (Danio rerio); conditions: relative to Galβ1,4Glc = 1.0; comparison values, reference not given; cited from earlier work
[3] = tested on: proto type galectin from domestic cow (Bos taurus); conditions: relative to Galβ1,4Glc = 1.0; comparison values, reference not given; cited from earlier work

Row | Compound | Relative inhibitory activity, Morone saxatilis (Msgal1-L1) | Relative inhibitory activity, Bufo arenarum [1] | Relative inhibitory activity, Danio rerio [2] | Relative inhibitory activity, Bos taurus [3] | Fold less effective than lactose as inhibitor (Msgal1-L1; Msgal1-L1 binding to ASF) | Inhibitory effect (in words) (Msgal1-L1; Msgal1-L1 binding inhibition) | Relative inhibitory activity, Morone saxatilis (Msgal1-L1; listed as Galβ1,4GlcNAc)
1 | CC(=O)N[C@H]1[C@H](O[C@H]2[C@H](O)[C@@H](CO)OC(O)[C@@H]2O)O[C@H](CO)[C@H](O)[C@@H]1O (stereo partly shown) [GalNacβ1,3Glc] | 2.8 | 4.45 |  |  |  |  | 
2 | CC(=O)N[C@H]1[C@H](Oc2ccc([N+](=O)[O-])cc2)O[C@H](CO)[C@@H](O)[C@@H]1O[C@@H]1O[C@H](CO)[C@H](O)[C@H](O)[C@H]1O [Galβ1-3GlcNacβ-OPhNO2 (p)] | 6.5 | 1.78 | 2.3 | 4.5 |  |  | 
3 | Galβ1,6GlcNAc | 0.225 | 0.83 | 0.03 | 0.12 |  |  | 
4 | CO[C@@H]1O[C@H](CO)[C@@H](O[C@@H]2O[C@H](CO)[C@H](O)[C@H](O)[C@H]2O)[C@H](O)[C@H]1O [Galβ1,4Glcβ(1-0)Me] | 1.74 | 2.14 | 2.9 | 1.33 |  |  | 
5 | CC(=O)N[C@H]1[C@@H](O[C@H]2[C@@H](O)[C@@H](CO)O[C@@H](O)[C@@H]2O[C@@H]2O[C@@H](C)[C@@H](O)[C@@H](O)[C@@H]2O)O[C@H](CO)[C@H](O)[C@@H]1O [A-trisaccharide] |  |  |  |  | threefold less effective |  | 
6 | OC[C@H]1O[C@@H](O[C@@H]2[C@@H](CO)O[C@](O)(CO)[C@H]2O)[C@H](O)[C@@H](O)[C@H]1O [Galβ1,4Fru f] | 1.9 | 1.0 | 1.0 |  |  |  | 
7 | OC[C@H]1O[C@@H](O[C@H]2[C@@H](O)COC(O)[C@@H]2O)[C@H](O)[C@@H](O)[C@H]1O (stereo partly shown) [Galβ1,3Ara] | 4.10 | 1.28 | 2.1 | 2.56 |  |  | 
8 | Nc1ccc(O[C@@H]2O[C@H](CO)[C@@H](O[C@@H]3O[C@H](CO)[C@H](O)[C@H](O)[C@H]3O)[C@H](O)[C@H]2O)cc1 [Galβ1,4Glcβ-OPhNH2 (p)] | 2 | 1.71 | 1.4 | 1.48 |  |  | 
9 | CO[C@@H]1O[C@H](CO)[C@H](O)[C@H](O)[C@H]1O [Galβ-OMe] | 0.009 | 0.006 | 0.004 | 0.0044 |  |  | 
10 | CC(=O)N[C@H]1C(O)O[C@H](CO)[C@H](O)[C@@H]1OC1O[C@H](CO)[C@H](O)[C@H](O)[C@H]1O (stereo partly shown) [Gal1,3GalNAc] |  |  |  |  |  | negligible | 
11 | CC(=O)N[C@H]1C(O)O[C@H](CO)[C@@H](O[C@@H]2O[C@H](CO)[C@H](O)[C@H](O)[C@H]2O)[C@@H]1O (stereo partly shown) [Galβ1,4GlcNac, N-acetyllactosamine] | 3.07 | 3.75 | 7.9 | 5.54 |  |  | approximately 3
12 | OC[C@H]1O[C@H](OCC2O[C@@H](O)[C@H](O)[C@@H](O)[C@@H]2O)[C@H](O)[C@@H](O)[C@H]1O (stereo partly shown) [Galα1,6Glc] | 0.019 | 0.0075 | 0.004 | 0.0053 |  |  | 
